Source: US9834526B2 (MERCK SHARP & DOHME CORP., priority 2013, dated 2017)

Each molecule was assayed against T1, wildtype HIV-1 protease (Human immunodeficiency virus type 1 group M subtype B, UniProt P04585) (assay: Inhibition of microbial expressed HIV protease (Pepcleav)). Details: wild type HIV-1 protease expressed in E. coli, 20 pM enzyme, 400 micromolar peptide substrate, pH 5.5, LC-MS readout; mean of at least two independent experiments.
T1 construct: preincubated with the HIV-1 protease (wild type) enzyme in assay buffer; made in house; host or cells: Escherichia coli
Type: biochemical
Protocol: Assay for Inhibition of Microbial Expressed HIV Protease (“Pepcleav”)
Studies of the inhibition of the wildtype HIV-1 protease (which was expressed in Escherichia coli) were carried out with a peptide substrate [Val-Ser-Gln-Asn-(βnaphthyl)Ala-Pro-Ile-Val (SEQ ID NO:1)]. The inhibitor was first preincubated with the HIV-1 protease (wild type) enzyme in assay buffer (50 mM sodium acetate, pH 5.5, 100 mM NaCl, and 0.1% BSA) for 30 minutes at room temperature. Substrate was added to 400 micromolar in a total volume of 20 microliters containing 20 picomolar HIV-1 protease (final) and the reaction was incubated for 1 hour at 30° C. The reaction was quenched with the addition of formic acid and indinavir to 0.012% and 150 nM final concentrations, respectively. The product formation was determined after separation of product and substrate on a Zorbax Eclipse XDB-C18 column connected to an API 4000 mass spectrometer (Applied Biosystems) with multiple reaction monitoring (transitions were 644.5/428.9 and 615.4/422.2 (M1/M3) for product and indinavir respectively). The extent of inhibition of the reaction was determined from the peak area of the products. Analysis of the products, independently synthesized, provided quantitation standards and confirmation of the product composition.

Row | Structure (SMILES) | IC50
1 | C[C@H]1O[C@H](CCc2c(F)cncc2NC(=O)[C@@H](N)C(c2ccc(F)cc2)c2ccc(F)cc2)CN[C@@H]1COC(=O)NCC(F)(F)F [Example 45, 4-fluoro-N-(5-fluoro-4-{2-[(2R,5R,6R)-6-methyl-5-({[(2,2,2-trifluoroethyl)carbamoyl]oxy}methyl)morpholin-2-yl]ethyl}pyridin-3-yl)-β-(4-fluorophenyl)-L-phenylalaninamide] | 24 nM
2 | COC(=O)N[C@H](C(=O)Nc1ccccc1CC[C@@H]1CN[C@H](C)[C@@H](CSc2nc(C)c(C)o2)O1)C(c1ccccc1)c1ccccc1 [Example 16, methyl N-[(1S)-1-benzhydryl-2-[[2-[2-[(2R,5R,6S)-6-[(4,5-dimethyloxazol-2-yl)sulfanylmethyl]-5-methyl-morpholin-2-yl]ethyl]phenyl]amino]-2-oxo-ethyl]carbamate] | 21.5 nM
3 | COC(=O)N[C@H](C(=O)Nc1ccccc1CC[C@@H]1CN[C@H](C)[C@@H](CSc2nnc(-c3ccncc3)o2)O1)C(c1ccccc1)c1ccccc1 [Example 5, methyl N-[(1S)-1-benzhydryl-2-[[2-[2-[(2R,5R,6S)-5-methyl-6-[[5-(4-pyridyl)-1,3,4-oxadiazol-2-yl]sulfanylmethyl]morpholin-2-yl]ethyl]phenyl]amino]-2-oxo-ethyl]carbamate] | 4.96 nM
4 | COC(=O)N[C@H](C(=O)Nc1ccccc1CC[C@@H]1CN[C@H](C)[C@@H](CSc2nnnn2CCN(C)C)O1)C(c1ccccc1)c1ccccc1 [Example 28, methyl N-[(1S)-1-benzhydryl-2-[[2-[2-[(2R,5R,6S)-6-[[1-(2-dimethylaminoethyl)tetrazol-5-yl]sulfanylmethyl]-5-methyl-morpholin-2-yl]ethyl]phenyl]amino]-2-oxo-ethyl]carbamate] | 214 nM
5 | N[C@H](C(=O)Nc1cccc(F)c1CC[C@@H]1CN[C@H](CO)[C@@H](COC(=O)NCC(F)(F)F)O1)C(c1ccc(F)cc1)c1ccc(F)cc1 [Example 63, 4-fluoro-N-(3-fluoro-2-{2-[(2R,5R,6S)-5-(hydroxymethyl)-6-({[(2,2,2-trifluoroethyl)carbamoyl]oxy}methyl)morpholin-2-yl]ethyl}phenyl)-β-(4-fluorophenyl)-L-phenylalaninamide] | 130 nM
6 | COC(=O)N[C@H](C(=O)Nc1ccccc1CC[C@@H]1CN[C@H](C)[C@@H](CSc2ccc(Cl)cn2)O1)C(c1ccccc1)c1ccccc1 [Example 8, methyl N-[(1S)-1-benzhydryl-2-[[2-[2-[(2R,5R,6S)-6-[(5-chloro-2-pyridyl)sulfanylmethyl]-5-methyl-morpholin-2-yl]ethyl]phenyl]amino]-2-oxo-ethyl]carbamate] | 8.35 nM
7 | COC(=O)N[C@H](C(=O)Nc1ccccc1CC[C@@H]1CN[C@H](COCc2ccccc2)[C@@H](CSc2nnc(-c3ccncc3)o2)O1)C(c1ccccc1)c1ccccc1 [Example 33] | 0.472 nM
8 | C[C@@H]1O[C@H](CCc2c(F)cccc2NC(=O)[C@@H](N)C(c2ccc(F)cc2)c2ccc(F)cc2)CN[C@@H]1COC(N)=O [Example 36, N-[2-(2-{(2R,5R,6S)-5-[(carbamoyloxy)methyl]-6-methylmorpholin-2-yl}ethyl)-3-fluorophenyl]-4-fluoro-β-(4-fluorophenyl)-L-phenylalaninamide] | 39 nM
9 | C[C@@H]1O[C@H](CCc2c(F)cccc2NC(=O)[C@@H](N)C(c2ccc(F)cc2)c2ccc(F)cc2)CN[C@@H]1COC(=O)NCC(F)(F)F [Example 50, 4-fluoro-N-(3-fluoro-2-{2-[(2R,5R,6S)-6-methyl-5-({[(2,2,2-trifluoroethyl)carbamoyl]oxy}methyl)morpholin-2-yl]ethyl}phenyl)-β-(4-fluorophenyl)-L-phenylalaninamide] | 30 nM
10 | COC(=O)N[C@H](C(=O)Nc1ccccc1CC[C@@H]1CN[C@H](C)[C@@H](CSc2nc(C(F)(F)F)nc3ccccc23)O1)C(c1ccccc1)c1ccccc1 [Example 14, methyl N-[(1S)-1-benzhydryl-2-[[2-[2-[(2R,5R,6S)-5-methyl-6-[[2-(trifluoromethyl)quinazolin-4-yl]sulfanylmethyl]morpholin-2-yl]ethyl]phenyl]amino]-2-oxo-ethyl]carbamate] | 14.2 nM
11 | COC(=O)N[C@H](C(=O)Nc1ccccc1CC[C@@H]1CN[C@H](C)[C@@H](CSc2nc3ccc(OC(F)F)cc3[nH]2)O1)C(c1ccccc1)c1ccccc1 [Example 17, methyl N-[(1S)-1-benzhydryl-2-[[2-[2-[(2R,5R,6S)-6-[[5-(difluoromethoxy)-1H-benzimidazol-2-yl]sulfanylmethyl]-5-methyl-morpholin-2-yl]ethyl]phenyl]amino]-2-oxo-ethyl]carbamate] | 25.1 nM
12 | COC(=O)N[C@H](C(=O)Nc1ccccc1CC[C@@H]1CN[C@H](C)[C@@H](CSc2ncc[nH]2)O1)C(c1ccccc1)c1ccccc1 [Example 29, methyl N-[(1S)-1-benzhydryl-2-[[2-[2-[(2R,5R,6S)-6-(1H-imidazol-2-ylsulfanylmethyl)-5-methyl-morpholin-2-yl]ethyl]phenyl]amino]-2-oxo-ethyl]carbamate] | 235 nM
13 | COC(=O)N[C@H](C(=O)Nc1ccccc1CC[C@@H]1CN[C@H](C)[C@@H](CSc2ccc(Cl)cc2)O1)C(c1ccccc1)c1ccccc1 [Example 1, N-(2-{2-[(2R,5R,6S)-6-{[(4-chlorophenyl)sulfanyl]methyl}-5-methylmorpholin-2-yl]ethyl}phenyl)-Nα-(methoxycarbonyl)-β-phenyl-L-phenylalaninamide] | 17.5 nM
14 | C[C@@H]1O[C@H](CCc2c(F)cccc2NC(=O)[C@@H](N)C(c2ccc(F)cc2)c2ccc(F)cc2)CN[C@@H]1COC(=O)N[C@H](C)C(F)(F)F [Example 61, 4-fluoro-N-[3-fluoro-2-(2-{(2R,5R,6S)-6-methyl-5-[({[(1R)-2,2,2-trifluoro-1-methylethyl]carbamoyl}oxy)methyl]morpholin-2-yl}ethyl)phenyl]-β-(4-fluorophenyl)-L-phenylalaninamide] | 27 nM
15 | COC(=O)N[C@H](C(=O)Nc1ccccc1CC[C@@H]1CN[C@H](c2ncc[nH]2)[C@@H](CSc2nnc(-c3ccncc3)o2)O1)C(c1ccccc1)c1ccccc1 [Example 32, N-(2-{2-[(2R,5R,6S)-5-(1H-imidazol-2-yl)-6-({[5-(pyridin-4-yl)-1,3,4-oxadiazol-2-yl]sulfanyl}methyl)morpholin-2-yl]ethyl}phenyl)-Nα-(methoxycarbonyl)-β-phenyl-L-phenylalaninamide] | 0.65 nM
16 | COC(=O)N[C@H](C(=O)Nc1ccccc1CC[C@@H]1CN[C@H](C)[C@@H](COc2ccc(C#N)cc2)O1)C(c1ccccc1)c1ccccc1 [Example 2] | 222 nM
17 | COC(=O)N[C@H](C(=O)Nc1ccccc1CC[C@@H]1CN[C@H](COC(=O)NCC(F)(F)F)[C@@H](CO)O1)C(c1ccccc1)c1ccccc1 [Example 46, N-(2-{2-[(2R,5R,6S)-6-(hydroxymethyl)-5-({[(2,2,2-trifluoroethyl)carbamoyl]oxy}methyl)morpholin-2-yl]ethyl}phenyl)-Nα-(methoxycarbonyl)-β-phenyl-L-phenylalaninamide] | 65 nM
18 | C[C@H]1O[C@H](CCc2c(F)cccc2NC(=O)[C@@H](N)C(c2ccc(F)cc2)c2ccc(F)cc2)CN[C@@H]1COC(=O)NCc1ccc(F)cc1 [Example 56, 4-fluoro-N-(3-fluoro-2-{2-[(2R,5R,6R)-5-({[(4-fluorobenzyl)carbamoyl]oxy}methyl)-6-methylmorpholin-2-yl]ethyl}phenyl)-β-(4-fluorophenyl)-L-phenylalaninamide] | 7 nM
19 | COC(=O)N[C@H](C(=O)Nc1ccccc1CC[C@@H]1CN[C@H](C)[C@@H](CSc2nc(C)cc(C)c2C#N)O1)C(c1ccccc1)c1ccccc1 [Example 27, methyl N-[(1S)-1-benzhydryl-2-[[2-[2-[(2R,5R,6S)-6-[(3-cyano-4,6-dimethyl-2-pyridyl)sulfanylmethyl]-5-methyl-morpholin-2-yl]ethyl]phenyl]amino]-2-oxo-ethyl]carbamate] | 124 nM
20 | COC(=O)N[C@H](C(=O)Nc1ccccc1CC[C@@H]1CN[C@H](C)[C@@H](CS(=O)(=O)c2ccc(Cl)cc2)O1)C(c1ccccc1)c1ccccc1 [Example 40, N-(2-{2-[(2R,5R,6S)-6-{[(4-chlorophenyl)sulfonyl]methyl}-5-methylmorpholin-2-yl]ethyl}phenyl)-Nα-(methoxycarbonyl)-β-phenyl-L-phenylalaninamide] | 750 nM
21 | C[C@@H]1O[C@H](CCc2c(F)cccc2NC(=O)[C@@H](N)C(c2ccc(F)cc2)c2ccc(F)cc2)CN[C@@H]1COC(=O)N[C@@H](c1ccc(F)cc1)C1CC1 [Example 59, N-[2-(2-{(2R,5R,6S)-5-[({[(R)-cyclopropyl(4-fluorophenyl)methyl]carbamoyl}oxy)methyl]-6-methylmorpholin-2-yl}ethyl)-3-fluorophenyl]-4-fluoro-β-(4-fluorophenyl)-L-phenylalaninamide] | 17 nM
22 | C[C@@H]1O[C@H](CCc2c(F)cncc2NC(=O)[C@@H](N)C(c2ccc(F)cc2)c2ccc(F)cc2)CN[C@@H]1COC(N)=O [Example 53, N-[4-(2-{(2R,5R,6S)-5-[(carbamoyloxy)methyl]-6-methylmorpholin-2-yl}ethyl)-5-fluoropyridin-3-yl]-4-fluoro-β-(4-fluorophenyl)-L-phenylalaninamide] | 25 nM
